Values of other authors, collected in patent US7060729B2, “Composition and method for treating skin” (priority 2002, dated 2006).
Like-named read-outs stand apart in the source and are kept apart here.

Experiments:
H. pylori = conditions: Mayr-Kanhauser 2001
[1] = as stated in US 5,972,993
[2] = in vivo
[3] = topical application

Row | SMILES | eliminating H. pylori (H. pylori) | effect against skin redness, telangiectasia or flushing [1] | effect on papules and pustules of rosacea [1] | erythema, dryness, and burning associated with rosacea [2] | reducing the number of inflammatory lesions and associated signs and symptoms of rosacea [2] | telangiectasia [2] | inflammatory papule lesions and erythema [3] | pustules caused by rosacea [3] | telangiectasia [3] | physicians' rating of global improvement, azelaic acid versus metronidazole [2]
1 | Cc1ncc([N+](=O)[O-])n1CCO [metronidazole, 2-methyl-5-nitro-1H-imidazole-1-ethanol] | effective | ineffective | have an effect | effective | equally effective | failed to effect |  |  |  | 
2 | O=C(O)CCCCCCCC(=O)O [azelaic acid, 1,7-heptanedicarboxylic acid] |  |  |  | effective | equally effective | failed to effect | significantly reduce | not effective | did not produce any major improvement | more favorably
3 | CC[C@H]1OC(=O)[C@H](C)[C@@H](O[C@H]2C[C@@](C)(OC)[C@@H](O)[C@H](C)O2)[C@H](C)[C@@H](O[C@@H]2O[C@H](C)C[C@H](N(C)C)[C@H]2O)[C@](C)(OC)C[C@@H](C)C(=O)[C@H](C)[C@@H](O)[C@]1(C)O [clarithromycin] | effective |  |  |  |  |  |  |  |  | 
